From patent US6451334B2, “Compositions and administration of compositions for the treatment of blood disorders” (priority 1997, dated 2002)
Where “and” joins values, the source holds several entries; their conditions need not be identical. Identical values can stand only once. Like-named read-outs stand apart in the source and are kept apart here. Blank lines part the entries; values can stand above or below the compound they belong to.

Tests used:
bone marrow cells = conditions: continuous intravenous administration; cited from earlier work
32D cells = experiment: Proliferation studies using 32D cells at low IL-3; format: cell-based, murine; conditions: 32D cells, low IL-3 (0.5 U/ml), FIG. 7
Protocol: 32D cells were cultured in RPMI media with 10% fetal bovine serum (Sigma, St. Louis, Mo.), […] glutamine (GIBCO), and murine IL3 (20 U/ml) (Biosource International). Growth factor controls used included the standard concentration of IL-3 required for proliferation of these cells (25 U/ml) and a 50-fold lower concentration (0.5 U/ml), and erythropoietin (3 U/ml) or G-CSF ( U/ml), (Amgen, Thousand Oaks, Calif.). The test compounds were added at final concentrations of 1 mM. As a cell density of 2.5−10×10^5 is necessary for growth of this cell line, this density was maintained by passing the cells at three day intervals or by concentrating the cells when apoptosis occurred. Proportions of cells which were viable or apoptotic, and the fraction of cells in each part of the cell cycle was assessed by incubating the cells with Trypan blue and enumeration, and with propidium iodide incubation and FACScan analysis as previously described.
The effects of the representative compounds which have been synthesized or selected for resistance to beta oxidative metabolism and glucuronidation in stimulating γ globin gene expression in a human erythroid-like cell line and for their effects on cell growth utilizing a multi-lineage murine hematopoietic cell line, 32D. This cell line is dependent on high concentrations of IL-3 for growth. […]

[1] = system: Mononuclear cells from patients with sickle cell disease or thalassemia trait; experiment: Erythroid colony (BFU-E) cultures in methylcellulose; format: cell-based, human; conditions: 0.2-0.5 mM, optimal growth factors
Protocol: Mononuclear cells from patients with sickle cell disease or thalassemia trait were isolated on Ficoll Hypague, washed, and cultured in methylcellulose media with optimal concentrations of hematopoietic growth factors IL-3, GM-CSF, Stem Cell Factor, IL6, 3 U/ml Eiythropoietin, insulin, bovine serum albumin, and 0.2-0.5 mM concentrations of test compounds of derivatives of cinnamic acid and hydrocinnamic acid. […] The following illustrates some representative cultures: […]

[2] = system: system A transport of amino acids; experiment: System A transport of amino acids; format: cell-based
Source text: Normal cell viability, the viability of an untransformed or uninfected cell, can be determined from analyzing the effects of the composition on one or more biological processes of the cell. Detrimental interference with one or more of these cellular processes becomes significant when the process becomes abnormal. Examples of quantitatable and qualifiable biological processes include the processes of cell division, protein synthesis, nucleic acid (DNA or RNA) synthesis, nucleic acid (principally DNA) fragmentation and apoptosis. Others processes include specific enzyme activities, the activities of the cellular transportation systems such as the transportation of amino acids by system A (neutral), system B (acidic) or system C (basic), and the expression of a cell surface protein. […] Abnormal cell division, for example, can be mitosis which occurs too rapidly, as in a malignancy, or unstably, resulting in programmed cell death or apoptosis, detected by increased DNA degradation. The determination of abnormal cell viability can be made on comparison with untreated control cells. Compositions preferably increase normal cell viability. Increased cell viability can be determined by those of ordinary skill in the art using, for example, DNA fragmentation analysis. […]

[3] = system: mice transgenic for a human beta globin locus YAC containing a silenced gamma globin gene; experiment: In vivo experiments in mice transgenic for the human beta globin gene locus
Protocol: Three prototype compounds, methylhydrocinnamic acid (MHCA), phenoxyacetic acid (PAA), and dimethylbutyric acid PMB), were administered at doses from 100 to 250 mg/kg in two daily doses by intraperitoneal injection to mice transgenic for a human beta globin locus YAC containing a silenced gamma globin gene. Reticulocytes, newly synthesized red blood cells, were counted daily and non-alpha globin in MRNA was analyzed by Rnase protection. Only 50 microliters of blood were removed daily for testing. A 5 to 10-fold increase in reticulocytes and a 1.7-2.4 fold increase in gamma globin mRNA was observed within one week of therapy with the three protype compounds. In contrast, control mice to which normal saline was administered, with the same degree of phlebotomy for testing, had no significant changes in reticulocytes or globin in mRNA.

K562 cells = experiment: Treatment of K562 cells and analysis of globin mRNA by primer extension; format: cell-based, human; conditions: for fold induction at 1000 µM: Homo sapiens, K562, 72 h, read-out: increase in γ-globin mRNA over constitutive levels in untreated control K562 cells; for stimulating γ globin compared to control cells (ranking in words) / Radioactivity Alpha Globin (α) mRNA / Radioactivity Fetal Globin (γ) mRNA / γ/α: K562 cells; for Radioactivity Alpha Globin (α) mRNA / Radioactivity Fetal Globin (γ) mRNA: phosphorimager; for γ/α: ratio of globin mRNA radioactivity
Protocol: K562 cells kindly provided by Dr. George Atweh were cultured with 10% fetal bovine serum (Sigma, St. Louis, Mo.) and RPMI media (Grand Island Biological Company, Grand Island, N.Y.) in a humidified atmosphere with 5% CO2/95% air. Compounds were tested at a final concentration of 1 mM at neutral pH and included butyric acid, phenoxyacetic acid, dimethylbutric acid, alpha-methylhydrocionamic acid, 2,3, and 4-methoxyhydrocinnamic acid, dihydrocinnamic acid, methoxycinnamic acid, methoxyacetic acid, phenylpropionic acid, amino hydrocinnamic acid, DL β- and DL-βamino-n-butyric acid, cinnamic acid, and 2 methylhydrocinnamic acid (Aldrich Chemical Company, St. Louis, Mo.). Additional compounds studied included dimethylhydroxy acetic acid, dimethylpropionic acid, dimethylphenoxyacetic acid, and dimethylmethoxyacetic acid. After three days of culture with these agents, mRNA was purified and α, β, and γ globin mRNA was analyzed by primer extension using oligonucleotide primers and quantitation on a PhosphoImager as previously described.

anemic baboon = experiment: Hematopoietic stimulation in an anemic phlebotomized baboon; format: in vivo; conditions: administered for five days, baboon phlebotomized 5% of blood volume daily, FIG. 13
Protocol: An increase in multiple blood cell lineages resulted when a prototype hemokine compound (α methylhydrocinnamic acid) was administered for five days to an anemic baboon, which was being phlebotomized 5% of its blood volume daily.

in vivo = conditions: monkey, po
Protocol: (§1) Chronic indwelling venous and arterial catheters which were maintained using sterile technique for blood sampling. Compounds were administered by nasogastric tube and blood was collected to determine drug plasma levels at regular intervals following single oral doses. […] The test compounds were analyzed after ether extraction of the plasma, separation by HPLC, and quantitated by comparison to a spilled internal standard of heptanoic acid according to previously described methods.

[4] = Pharmacokinetic studies after single oral doses in baboons; conditions: monkey, plasma
Protocol: as §1

[5] = Pharmacokinetics after single oral doses in human volunteers; format: in vivo; conditions: FIG. 4, in humans, oral doses of 40-500 mg/kg
Protocol: as §1

[6] = In vivo half-life of the composition
Protocol: The interval between pulses or the interval of no delivery is greater than 24 hours and preferably greater than 48 hours, and can be for even longer such as for 3, 4, 5, 6, 7, 8, 9 or 10 days, two, three or four weeks or even longer. As the results achieved may be surprising, the interval between pulses, when necessary, can be determined by one of ordinary skill in the art. Often, the interval between pulses can be calculated by administering another dose of the composition when the composition or the active component of the composition is no longer detectable in the patient prior to delivery of the next pulse. Intervals can also be calculated from the in vivo half-life of the composition. Intervals may be calculated as greater than the in vivo half-life, or 2, 3, 4, 5 and even 10 times greater the composition half-life.

thalassemic patients = experiment: Pulsed arginine butyrate infusion in thalassemic disorders; format: in vivo; conditions: 4 days with infusions about 8 hours per day, then 7 days of no treatment
Protocol: Individual pulses can be delivered to the patient continuously over a period of several hours, such as about 2, 4, 6, 8, 10, 12, 14 or 16 hours, or several days, such as 2, 3, 4, 5, 6, or 7 days, preferably from about 1 hour to about 24 hours and more preferably from about 3 hours to about 9 hours. Alternatively, periodic doses can be administered in a single bolus or a small number of injections of the composition over a short period of time, typically less than 1 or 2 hours. […] Substantially means that there are positive consequences that raise the patient's standard of living such as, for example, increased activity or mobility, fewer side-effects, fewer hospital stays or visits to the physician, or fewer transfusions.
Compositions administered in pulses have the surprising benefit of reducing the overall load of drug on the patient as the total amount of drug administered can be substantially less than that amount that has been therapeutically administered by conventional continuous therapy. […] Preferably, the therapeutically effective pulsed dose is less than the continuous dose, or less than one half, one third, one quarter, one fifth, one tenth or even one twentieth of the therapeutic continuous dose of the same composition or even less.

[7] = 100 to 250 mg/kg in two daily doses, intraperitoneal, listed as DMB

Compound: Nc1ncn([C@@H]2O[C@H](CO)[C@@H](O)[C@H]2O)c(=O)n1 [AZA, 5-azacytidine]
increase in γ globin mRNA of bone marrow cells (bone marrow cells): five- to seven

Compound: CC(Cc1ccccc1)C(=O)O (stereo not drawn) [ST 7, α-methylhydrocinnamic acid]
increase in proliferation over 4 days (32D cells): 5 fold
Mean BFU-E/culture 4 cultures averaged (per 0.2 million cells) [1]: 223
% Increase over control ([1]; BFU-E): 32.4%
system A transport of amino acids [2]: do not significantly alter
Reticulocytes Peak ([3]; 100 to 250 mg/kg in two daily doses, intraperitoneal, listed as MHCA): 17.9 and 23.3
Reticulocytes Day 0 ([3]; baseline of the treated animal, listed as MHCA): 2.9 and 2.3
fold induction at 1000 µM (K562 cells): 2.4 to 26
stimulating γ globin compared to control cells (ranking in words) (K562 cells; 1 mM): most active
Radioactivity Alpha Globin (α) mRNA (K562 cells; 1 mM): 92979
Radioactivity Fetal Globin (γ) mRNA (K562 cells; 1 mM): 1648056
γ/α (K562 cells; 1 mM): 17.7
blood cell lineages (anemic baboon): increase in both white blood cells and total hemoglobin
half-life (in vivo): 456 min

half-life [4]: 408 min
time for which plasma levels persisted in the millimolar range [5]: greater than 6 hours
Compound: CCC(C)(C)C(=O)O [ST 20, 2,2 dimethylbutyric acid]
Reticulocytes Peak [3, 7]: 17.7 and 21.3
γ/γ + β mRNA Peak [3, 7]: 0.36 and 0.31
γ/γ + β mRNA Day 0 ([3]; baseline of the treated animal, RNase protection, listed as DMB): 0.20 and 0.17
Reticulocytes Day 0 ([3]; baseline of the treated animal, listed as DMB): 2.4 and 4.2
fold induction at 1000 µM (K562 cells; primer extension, 1 mM, three days of culture, FIG. 1): 2.4 to 26
stimulating γ globin compared to control cells (ranking in words) (K562 cells; 1 mM): most active
Radioactivity Alpha Globin (α) mRNA (K562 cells; 1 mM): 178751
Radioactivity Fetal Globin (γ) mRNA (K562 cells; 1 mM): 1697936
γ/α (K562 cells; 1 mM): 9.5

Compound: arginine butyrate [reference compound]
half-life [6]: 15 min
Fetal hemoglobin levels (thalassemic patients): rise substantially
Radioactivity Alpha Globin (α) mRNA (K562 cells; 1 mM): 296132
Radioactivity Fetal Globin (γ) mRNA (K562 cells; 1 mM): 2176523
γ/α (K562 cells; 1 mM): 7.3
